Source: patent US20260284082A1, “TARGETING THE PANX1-P2Y2R-TRPV4 PATHWAY TO TREAT LUNG ISCHEMIA-REPERFUSION INJURY” (UNIVERSITY OF VIRGINIA PATENT FOUNDATION, priority 2023, published 2026)

Key:
[1] = human, in vivo; cited from earlier work
[2] = tested on: eATP efflux through Panx1 channels; test: Luciferase assay for eATP release from small PAs; type: cell-based, mouse; settings: GSK101 10 nM
Method: Luciferase assay for total ATP release: Small Pas were cut open and pinned down en face on a Sylgard block. Pas were then placed in black, opaque 96-well plates and incubated in HEPES-PSS for 10 minutes at 37° C., followed by incubation with the ectonucleotidase inhibitor ARL 67156 (300 μmol/L; Tocris Bioscience, Minneapolis, MN) for 30 minutes at 37° C. A 50-μL aliquot of each sample was transferred to another black, opaque 96-well plate, and ATP was measured using an ATP Bioluminescence HSII kit (Roche Applied Science, Penzberg, Germany).^5 Briefly, 50 μL of the luciferase reagent, luciferin, provided in the assay kit (Roche Applied Science), was added to each well and. following a 5-second orbital mix, luminescence was recorded using a luminometer (FluoStar Omega). ATP concentrations were calculated by reference to an ATP standard curve.

[3] = tested on: pulmonary endothelium of small PAs; test: Baseline endothelial Ca2+ signaling in en face small PAs after lung IR (Fluo-4 confocal imaging); type: cell-based, mice; settings: apyrase 10 U/mL; small PAs after lung IR
Method: (§1) Murine lung IR model: A well-established left lung IRI model involving temporary in vivo ligation of the left hilum (pulmonary artery, vein, and airway) was used.^6 Briefly, mice were anesthetized with inhaled isoflurane, intubated, ventilated with room air at 150 strokes/min with a tidal volume of […] (Harvard Apparatus Co, South Natick, MA), and heparinized (20 U/kg: Hospira Inc, Lake Forest, IL). An anterolateral thoracotomy was performed through the fourth intercostal space to expose the left hilum. A 6-0 Prolene suture (Ethicon. Somerville, NJ) was passed around the left hilum, and the suture ends were passed through a 5-mm length of polyethylene (PE)-50 tubing. A surgical clip was used to fashion a Rummel tourniquet to provide temporary occlusion of the left hilar structures. The thoracotomy was closed, anesthesia was weaned, and analgesia was administered (intraperitoneal buprenorphine. 0.2 mg/kg). Animals recovered in their cages during the 1-hour ischemic period, after which they were anesthetized again and intubated, the Rummel tourniquet was removed, and the thoracotomy was closed. Animals were again extubated, recovered in their cage, and monitored during the 2-hour reperfusion period. Sham animals underwent the same surgical procedure except that application of the Rummel tourniquet to induce ischemia was omitted; thus, these animals were perfused for a total of 3 hours.
Ca^2+ imaging in Pas: Ca^2+ imaging in small Pas was performed as previously described.8 Fourth-order, small (~50 μm diameter) Pas (see FIG. 1B) were dissected from left lungs in cold HEPES-buffered physiological salt solution (HEPES-PSS; 10 mM HEPES, 134 mM NaCl, 6 mM KCl, 1 mM MgCl2 hexahydrate, 2 mM CaCl2) dihydrate, and 7 mM dextrose; pH adjusted to 7.4 using 1 M NaOH). […] Fluo-4 was excited using a 488-nm solid-state laser, and emitted fluorescence was captured using a 525/36-nm band-pass filter. […] Baseline Ca^2+ signaling activity was recorded in the absence of CPA. […]

TRPV4EC channels = test: TRPV4 sparklet activity in endothelium of small PAs after lung IR (in presence of CPA); type: cell-based, mice; settings: apyrase 10 U/mL; small PAs after lung IR
Method: as §1, with “Sham animals underwent the same surgical procedure except that application of the Rummel tourniquet to induce ischemia was omitted; thus, these animals were perfused for a total of 3 hours.” left out
Ca^2+ imaging in Pas: Ca^2+ imaging in small Pas was performed as previously described.8 Fourth-order, small (~50 μm diameter) Pas (see FIG. 1B) were dissected from left lungs in cold HEPES-buffered physiological salt solution (HEPES-PSS; 10 mM HEPES, 134 mM NaCl, 6 mM KCl, 1 mM MgCl2 hexahydrate, 2 mM CaCl2) dihydrate, and 7 mM dextrose; pH adjusted to 7.4 using 1 M NaOH). […] Fluo-4 was excited using a 488-nm solid-state laser, and emitted fluorescence was captured using a 525/36-nm band-pass filter. […] Baseline Ca^2+ signaling activity was recorded in the absence of CPA.
TRPV4 sparklets were assessed as increases in fluorescence relative to baseline fluorescence, obtained by averaging 10 quiescent images prior to stimulation. […]

TRPV4 channels = settings: CPA 20 μM as used; cited from earlier work

Q: Which tolerability [1] does the source give for `CC(C)(O)c1cnc(N2C[C@@]3(CCC[C@](C)(Cn4cnc5ccc(C#N)cc54)C3)OC2=O)cn1` [GSK2798745] here?
A: well tolerated

Q: For `CC(C)C[C@H](NC(=O)c1cc2ccccc2s1)C(=O)N1CCN(C(=O)[C@H](CO)NS(=O)(=O)c2ccc(Cl)cc2Cl)CC1` [GSK101, GSK1016790A], which “eATP efflux through Panx1 channels (eATP release from small PAs)” value [2] is on record?
A: increased

Q: With apyrase as the compound, how does the “IR-induced increase in baseline Ca2+ signaling activity” value [3] read?
A: abolished

Q: What about the “IR-induced increase in TRPV4EC channel activity” value (TRPV4EC channels) of the same compound?
A: abolished

Q: For `CC(=O)C1=C(O)[C@@H]2[C@H]3c4c[nH]c5cccc(c45)C[C@H]3C(C)(C)N2C1=O` [CPA, Cyclopiazonic acid], which “effect of CPA by itself on activity of TRPV4 channels” value (TRPV4 channels) is on record?
A: does not alter
